One data set has as its target T1, CYP17 (17-lyase) (Homo sapiens, UniProt P05093).
T1 sequence (P05093 1-508): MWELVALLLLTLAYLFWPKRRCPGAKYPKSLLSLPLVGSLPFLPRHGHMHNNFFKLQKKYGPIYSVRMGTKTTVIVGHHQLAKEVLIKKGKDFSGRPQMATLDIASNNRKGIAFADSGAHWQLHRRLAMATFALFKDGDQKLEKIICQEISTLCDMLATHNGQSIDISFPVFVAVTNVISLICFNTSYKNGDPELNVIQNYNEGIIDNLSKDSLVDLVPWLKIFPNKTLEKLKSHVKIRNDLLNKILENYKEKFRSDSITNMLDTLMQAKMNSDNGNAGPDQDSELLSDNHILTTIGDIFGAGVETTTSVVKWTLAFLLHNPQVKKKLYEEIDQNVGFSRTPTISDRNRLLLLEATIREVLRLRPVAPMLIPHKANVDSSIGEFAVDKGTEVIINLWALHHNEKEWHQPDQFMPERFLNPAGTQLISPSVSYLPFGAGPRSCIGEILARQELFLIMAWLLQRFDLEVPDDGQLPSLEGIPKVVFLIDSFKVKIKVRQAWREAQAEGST
Nature of the data set: Selectivity: effect on CYP17 (17-lyase). It counts as biochemical. To be noted: concentration as high as 5 μM. As for the experimental part: (§1) The selectivity of the compounds of the present invention towards ATRA-4-hydroxylase was tested by measuring the effect on the key enzymes in the biosynthesis of estradiol and dehydroepiandrosterone, CYP19 (aromatase) and CYP17 (17-lyase), respectively.

Another data set concerns the target T2, CYP19 (aromatase) (Homo sapiens, UniProt P11511).
T2 sequence (P11511 1-503): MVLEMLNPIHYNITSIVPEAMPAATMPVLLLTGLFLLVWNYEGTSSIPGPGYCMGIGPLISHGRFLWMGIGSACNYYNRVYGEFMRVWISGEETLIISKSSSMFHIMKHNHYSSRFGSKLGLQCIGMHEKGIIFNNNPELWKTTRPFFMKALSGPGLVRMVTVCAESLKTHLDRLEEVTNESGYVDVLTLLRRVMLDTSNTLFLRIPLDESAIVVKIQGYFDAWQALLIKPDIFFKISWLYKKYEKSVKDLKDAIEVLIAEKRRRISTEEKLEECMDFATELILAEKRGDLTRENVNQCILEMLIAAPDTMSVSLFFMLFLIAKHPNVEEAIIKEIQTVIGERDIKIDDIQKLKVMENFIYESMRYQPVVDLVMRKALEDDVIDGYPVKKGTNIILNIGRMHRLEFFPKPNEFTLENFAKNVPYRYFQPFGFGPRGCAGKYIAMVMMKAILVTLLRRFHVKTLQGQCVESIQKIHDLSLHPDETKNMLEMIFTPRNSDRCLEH
The data set is described as follows: Selectivity: effect on CYP19 (aromatase). The class given is biochemical. To be noted: concentration as high as 5 μM. The protocol:
as §1

A short description of data set [1]: Pharmacokinetic studies in mice (plasma levels by HPLC). The class given is in vivo. To be noted: mice, 10 mg/kg s.c. As for the experimental part:
FIG. 18: Plasma Levels in Balb/c Mice Following Dose of 10 mg/kg body weight Given s/c.
Pharmacokinetic studies of VN/65-4 and VN/66-1 were measured in mice and were compared to VN/14-1 and VN/50A-1. Mice were dosed s.c. at 10 mg/kg using a vehicle, 45% β-cyclodextrin in water, and plasma levels were measured by HPLC. […] The results are summarized in Table 3 below and the profiles in FIG. 18.

Data set [2] can be described thus: Effect of VN/65-4 on plasma elimination of ATRA. The class given is in vivo. The settings on record: mice, VN/65-4 10 mg/kg s.c. one hour before ATRA 1.0 mg/kg s.c. The protocol:
FIG. 19: Plasma Concentration of ATRA (1 mg/kg) After a Dose of 10 mg/kg body weight of VN/65-4.
To determine the ability of VN/65-4 to delay the velocity of plasma elimination of ATRA, mice were treated s.c. with VN/65-4 (10 mg/kg). One hour later, the mice were administered s.c. ATRA (1.0 mg/kg) and sacrificed at various time points. […] From these experiments it is believed that it is possible to improve ATRA efficacy by reducing its enhanced metabolism to increase endogenous levels.

For a further data set, the target named is ATRA 4-hydroxylase (Mesocricetus auratus, UniProt A0A1U7QD41). The data set is described as follows: Hamster liver microsome assay of ATRA metabolism (ATRA 4-hydroxylase inhibition). It counts as biochemical. The settings on record: hamster liver microsomes. The protocol: Washed hamster liver microsomes were prepared as follows: Livers are removed from sacrificed animals, rinsed in ice-cold 0.9% NaCl solution and homogenized in a 3-fold volume of 0.25 M sucrose-0.05 M Tris-HCl (pH 7.4) using a blender. Microsomes are isolated by differential centrifugation (10,000×g, 20 minutes; 100,000×g, 60 minutes; 4° C.) using a well-known technique (Van Wauwe, J.; Van Nyen, G.; Coene, M-C.; Stoppie, P.; Cols, W.; Goossens, J, Borghgraef, P.; Janssen, P A J, Liarozole, an Inhibitor of Retinoic Acid Metabolism, Exerts Retinoid-Mimetic Effects, In Vivo. J. Pharmacol. Expt. Ther. 261, 773-779, 1992). The microsomes are suspended in PBS buffer (pH 7.4), in 1 ml aliquots and stored at −70° C. until required.
Sequence of ATRA 4-hydroxylase (A0A1U7QD41 entry or part of it): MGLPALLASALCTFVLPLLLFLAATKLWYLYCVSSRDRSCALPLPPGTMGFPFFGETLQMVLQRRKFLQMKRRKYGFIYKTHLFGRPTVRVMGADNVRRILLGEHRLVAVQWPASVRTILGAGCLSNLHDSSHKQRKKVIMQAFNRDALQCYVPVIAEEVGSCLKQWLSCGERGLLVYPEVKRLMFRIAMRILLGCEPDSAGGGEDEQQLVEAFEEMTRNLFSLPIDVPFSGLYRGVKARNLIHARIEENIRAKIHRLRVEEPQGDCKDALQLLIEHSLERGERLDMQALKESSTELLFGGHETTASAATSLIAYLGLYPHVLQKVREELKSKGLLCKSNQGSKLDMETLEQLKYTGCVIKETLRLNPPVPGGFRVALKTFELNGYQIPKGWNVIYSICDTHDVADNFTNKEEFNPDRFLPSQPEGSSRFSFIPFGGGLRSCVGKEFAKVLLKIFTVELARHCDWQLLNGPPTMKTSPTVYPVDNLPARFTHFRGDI
The standard reaction mixture (total of 400 μl) is composed of assay buffer, 140 μl; microsomes, 100 μl ([…]); NADPH, 100 μl ([…]); and a C-4 substituted ATRA analog dissolved in DMSO, 40 μl. After a 3 minute preincubation at 37° C., the reaction is initiated by addition of 20 μl of [11,12-^3H]-ATRA (20 μCi/ml). The incubation is carried out for 30 minutes under oxygen with shaking in a water bath at 37° C. The reaction is stopped by acidification with 0.1 ml formic acid, and the samples are extracted (×2) with EtOAc (2 ml) containing 0.05% butylated hydroxyanisole. The combined organic extracts are evaporated in vacuo, dissolved in 200 μl of the mobile phase for HPLC. An aliquot is analyzed for tritium content by liquid scintillation spectrometry. Usually, >95% of the added radioactivity is recovered. Most of the samples (150 μl) are analyzed on a 10 (m C18 Bondapak column (3.9×300 mm, Millipore), eluted with a multi-linear gradient solvent system: i, MeOH—H2O—HCOOH (60:40:0.05) containing 10 mM ammonium acetate (100 (0%) and ii, MeOH (0 (100%) at 2 ml/min. The radioactivity is measured by an on-line radio-detector. The Rts of ATRA, 4-hydroxy-ATRA and 4-oxo-ATRA are determined by UV absorbance at 350 nm in separate cuvettes. Typically, 80±5% of [11, 12-^3H]ATRA is converted into the metabolites.
The C-4 substituted ATRA analogs are tested at two concentrations, 500 and 1000 nM. IC50 and Ki values are determined.
Incubation of [11,12-^3]ATRA with hamster liver microsomes as described above results in the formation of polar metabolites, including 4-hydroxy-ATRA and 4-oxo-ATRA (see FIG. 7A). […] VN/14-1RA inhibits cytochrome P450-dependent metabolism of ATRA.
Table 2B represents repeated testing of some of the compounds in Table 2A and testing on additional compounds. For comparison, the IC50 values of liarozole and ketoconazole (known inhibitors of ATRA 4-hydroxylase) were also determined.

The subject of another data set is LNCaP cells. Nature of the data set: LNCaP cell growth, compound in combination with ATRA. The class given is cell-based, human. The settings on record: for inhibition of proliferation of LNCaP cells: 10^−8 to 10^−5 M in combination with 10^−5 M ATRA, compared with no drug or ATRA only; for concentration(s) that prevent the LNCaP cells from increasing in number: in combination with 10^−5 M ATRA, tested 10^−8 to 10^−5 M. As for the experimental part: LNCaP cells are androgen-dependent cell cultures. PC-3 cells are androgen independent cell culture.
LNCaP cells are transferred into ATRA-free medium 3 days prior to start of experiments. Medium consist of phenol red-free IMEM supplemented with 5% FBS and 1% P/S. Cell are then plated into 24-well culture plates (15000 cells per well) in 1 mL of same medium. After a 24-hour attachment period, the vehicle (ethanol) or ATRA (10^−5 M) alone or ATRA in combination with a novel compound at a range of concentrations are added to triplicate wells. Medium/treatments are changed every 3 days. After 9 days of treatment, cells are removed from the wells with typsin/EDTA and counted in a Coulter counter. Using well-known methods (Wouters W, Van Dun J, Dillen A, Coene M.-C, Cools W and De Coster R, Effects of liarozole, a new antitumoral compound an retinoic acid-induced inhibition of cell growth and on retinoic acid metabolism in MCF-7 breast cancer cells, Cancer Res 52: 2841-2846, 1992), one determines the inhibitory effect of the novel compounds on LNCaP cells grown with ATRA.

A further data set deals with PC-3 tumors. Nature of the data set: Growth of PC-3 tumors in male nude mice. The class given is in vivo. To be noted: PC-3 xenografts. As for the experimental part: FIG. 20: Effect of ATRA and VN/50A-1 on PC 3 Tumor Volumes in Male Nude Mice
The effects of VN/50A-1 on tumor growth was determined in mouse xenografts and compared to ATRA as the reference treatment (FIG. 20). Mice were grouped 35 days after cell inoculation when measurable tumor volume was approximately 500 mm^3. Total tumor volume in the control mice increased 5.4-fold over 7 weeks and tumor volume in the mice treated with ATRA increased by 3.2-fold (41% reduction compared with control). In the mice treated with VN/50A-1, tumor volume increased by 3.5-fold, which was 38% reduction versus control mice, which correlated well with accumulation of ATRA in plasma and in tumors. […] VN/50A-1 is completely eliminated from plasma within 3 hour of administration to mice (see FIG. 18). The inventive compounds with longer half-lives will have favorable bioavailability and are expected to be more efficacious.

Data set [3] relates to ATRA 4-hydroxylase activity in LNCaP cells. Nature of the data set: Induction of ATRA metabolism in LNCaP cells. The class given is cell-based, human. The settings on record: LNCaP cells preincubated with 1.0 μM ATRA, 0.8 μM [3H]ATRA. The protocol:
FIG. 17: Metabolism of 0.8 μM 3H-ATRA Following Induction with 1 μM ATRA in LNCaP Cells.
The potential of these cell lines to metabolize ATRA was investigated. […] LNCaP cells were preincubated with 1.0 μM ATRA for different time periods up to 48 hour. Following preincubation, ATRA metabolism was determined using 0.8 μM [11,12-^3H]ATRA. Induction of 4-hydroxylase activity ([^3H]ATRA metabolism was time-dependent with a fast onset and maximal induction achieved after a preincubation period of 18 hour (FIG. 17).

Setting [4] is: Table 2A, initial testing, read-out: IC50 Value.
Setting [5] is: Table 2B, repeated testing and additional compounds, read-out: IC50 Value, Inhibition of ATRA 4-Hydroxylase.

Where two headings read alike, the source gives them in different places.

For the compound `COC(=O)C=C(C)C=CC=C(C)C=CC1=C(C)C(n2ccnc2)CCC1(C)C` (mixture of isomers) [VN/65-4, (±)-4-(1H-imidazol-1-yl)-13-cis-methylretinoate], the “inhibition of CYP17 (17-lyase)” value against CYP17 (17-lyase) was “barely inhibited”. Further, the “inhibition of CYP19 (aromatase)” value on CYP19 (aromatase) is given as “barely inhibited”. Further, the “in vivo conversion to corresponding acid” value in data set [1] is “rapidly and completely converted to corresponding acid”. Moreover, the “rate of plasma elimination of ATRA” value in data set [2] is “delayed the rate of ATRA elimination significantly”.
As for `COC(=O)C=C(C)C=CC=C(C)C=CC1=C(C)C(n2cncn2)CCC1(C)C` (racemic) [VN/13-1, (±)-4-(1H-1,2,4-triazol-1-yl)methyl retinoate], the IC50 amounted to 680 ± 3 nM on ATRA 4-hydroxylase (setting [4]) and 1 ± 0.05 nM on ATRA 4-hydroxylase (setting [5]).
For `COC(=O)C=C(C)C=CC=C(C)C=CC1=C(C)C(n2cnnc2)CCC1(C)C` (racemic) [VN/13-2, (±)-4-(4H-1,2,4-triazole-1-yl)methyl retinoate], on ATRA 4-hydroxylase (setting [5]), the IC50 amounted to 10 ± 0.3 nM.
On to `CC1=C(/C=C/C(C)=C/C=C/C(C)=C/C(=O)O)C(C)(C)CCC1n1cncn1` (racemic) [VN/16-1, (±)-4-(1H-1,2,4-triazol-1-yl)retinoic acid], for which the IC50 at ATRA 4-hydroxylase (setting [4]) was 880 ± 8 nM. Further, the IC50 at ATRA 4-hydroxylase (setting [5]) was 5 ± 0.25 nM. In the data set on LNCaP cells, the “inhibition of proliferation of LNCaP cells” value is listed as “inhibit the proliferation of LNCaP cells better than no drug or ATRA only” and the “concentration(s) that prevent the LNCaP cells from increasing in number” value is reported as 10^−5 M.
In the same order, the values of `CC1=C(/C=C/C(C)=C/C=C/C(C)=C/C(=O)O)C(C)(C)CCC1n1cnnc1` (racemic) [VN/17-1] are 1620 nM, 25 ± 0.5 nM, “inhibit the proliferation of LNCaP cells better than no drug or ATRA only” and “All concentrations”.
For the compound `CC1=C(/C=C/C(C)=C/C=C/C(C)=C/C(=O)O)C(C)(C)CCC1` [ATRA, All-trans retinoic acid, reference compound], the “tumor weights versus control mice” value in the data set on PC-3 tumors is listed as “significantly (P<0.05) lower”. Further, the “reduction of tumor volume compared with control” value in the data set with PC-3 tumors (over 7 weeks) was determined as 41%. Besides, the “increase of total tumor volume” value in the data set with PC-3 tumors (over 7 weeks, control 5.4-fold) is 3.2 fold. Moreover, the “preincubation period for maximal induction of 4-hydroxylase activity” value in data set [3] was 18 h.
Regarding `Clc1cccc(C(c2ccc3[nH]cnc3c2)n2ccnc2)c1` (stereo not drawn) [Liarozole, reference compound], in the data set on LNCaP cells, the “inhibition of proliferation of LNCaP cells” value is on record as “inhibit the proliferation of LNCaP cells better than no drug or ATRA only” and the “concentration(s) that prevent the LNCaP cells from increasing in number” value was 10^−5 M.

The record behind these values is US20120122908A1, “Novel C-4 Substituted Retinoids” (University of Maryland, priority 2000, published 2012).
